The term IC50 denotes the concentration that gives 50% inhibition. Low values mean greater potency, high ones weaker potency.

The structures appear in SMILES notation. Activity calls are given as the source filed them. No cut-off for these calls is given here. Where a SMILES comes first, the peptide text is derived from it. The star is where a group is joined. Me2Gly = CN(C)CC(=O)*; Acm = CC(=O)NC*

The target in series [1] is T1, Neuromedin-B receptor (Rattus norvegicus, UniProt P24053).
T1 sequence (P24053 whole entry): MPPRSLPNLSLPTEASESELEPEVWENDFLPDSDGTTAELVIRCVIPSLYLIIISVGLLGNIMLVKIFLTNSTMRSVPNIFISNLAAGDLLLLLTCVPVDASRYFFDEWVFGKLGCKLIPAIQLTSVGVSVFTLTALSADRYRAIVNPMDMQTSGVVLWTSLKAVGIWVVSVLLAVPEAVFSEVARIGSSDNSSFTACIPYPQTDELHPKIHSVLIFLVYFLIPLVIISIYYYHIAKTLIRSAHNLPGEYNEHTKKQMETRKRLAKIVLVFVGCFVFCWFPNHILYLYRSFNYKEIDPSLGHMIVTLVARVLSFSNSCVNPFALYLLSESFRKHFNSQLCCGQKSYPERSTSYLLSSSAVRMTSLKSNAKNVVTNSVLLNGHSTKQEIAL
Briefly: Displacement of [125I]-NMB from NMB receptor in rat C6 cells. In kind it is cell-based.

In series [2] the target is T2, Gastrin-releasing peptide receptor (Homo sapiens, UniProt P30550). Briefly: Displacement of [125I]-BBN from GRPR in human PC3 cells after 1 hr by compuGamma counting or microplate scintillation counting method. In kind it is cell-based, PC-3. (In a radioligand displacement assay an active substance lowers the binding of a labelled ligand.)
Target sequence in this assay (P30550 whole entry): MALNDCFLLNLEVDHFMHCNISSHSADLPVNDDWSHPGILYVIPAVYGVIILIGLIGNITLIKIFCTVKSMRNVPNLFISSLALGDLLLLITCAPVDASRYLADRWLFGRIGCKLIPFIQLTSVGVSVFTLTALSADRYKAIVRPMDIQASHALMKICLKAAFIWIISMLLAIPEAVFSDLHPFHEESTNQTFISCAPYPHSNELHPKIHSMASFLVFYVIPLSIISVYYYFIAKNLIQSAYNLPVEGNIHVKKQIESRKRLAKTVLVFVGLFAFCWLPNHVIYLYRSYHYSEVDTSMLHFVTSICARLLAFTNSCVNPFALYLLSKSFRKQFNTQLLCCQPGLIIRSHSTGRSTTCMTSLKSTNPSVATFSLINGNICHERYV
Series [3] concerns the target T2, Gastrin-releasing peptide receptor. In words: Binding affinity to GRP receptor in human colon smooth muscle after 1 hr by autoradiography.
Target sequence in this assay (P30550 whole entry, looked up): as the sequence (P30550 whole entry) above
A short description of series [4]: Drug internalization in human PC3 cells after 40 mins by gamma counting method. The note with it: pc-3, 40 min. Type of series: ADME, cell-based.
Series [5] is described as follows: Drug efflux in human PC3 cells after 2 hrs by gamma counting method. Type of series: ADME, cell-based. The settings on record: pc-3, 2 h.

The compound `CSCC[C@H](NC(=O)[C@H](CC(C)C)NC(=O)[C@H](Cc1cnc[nH]1)NC(=O)CNC(=O)[C@@H](NC(=O)[C@H](C)NC(=O)[C@H](Cc1c[nH]c2ccccc12)NC(=O)[C@H](CCC(N)=O)NC(=O)[C@H](CCC(=O)O)NC(=O)[C@H](CCCCN)NC(=O)CNC(=O)[C@H](CSCNC(C)=O)NC(=O)[C@H](CO)NC(=O)CN(C)C)C(C)C)C(N)=O` had an IC50 in series [1] of 60 nM. On the same count and under the same terms, then `CSCC[C@H](NC(=O)[C@H](CC(C)C)NC(=O)[C@H](Cc1cnc[nH]1)NC(=O)CNC(=O)[C@@H](NC(=O)[C@H](C)NC(=O)[C@H](Cc1c[nH]c2ccccc12)NC(=O)[C@H](CCC(N)=O)NC(=O)CN1CCN(CC(=O)O)CCN(CC(=O)O)CCN(CC(=O)O)CC1)C(C)C)C(N)=O`, with over 250 nM. The same measure, in the same setting: then `CSCC[C@H](NC(=O)[C@H](Cc1ccccc1)NC(=O)[C@H](Cc1c[nH]cn1)NC(=O)CNC(=O)[C@@H](NC(=O)[C@H](C)NC(=O)[C@H](Cc1c[nH]c2ccccc12)NC(=O)[C@H](CC(C)C)NC(=O)c1ccc(NC(=O)CNC(=O)CN2CCN(CC(=O)O)CCN(CC(=O)O)CCN(CC(=O)O)CC2)cc1)C(C)O)C(N)=O` (stereo partly specified), with 0.07 to 0.8 nM. For the compound `CSCC[C@H](NC(=O)[C@H](CC(C)C)NC(=O)[C@H](Cc1cnc[nH]1)NC(=O)CNC(=O)[C@@H](NC(=O)[C@H](C)NC(=O)[C@H](Cc1c[nH]c2ccccc12)NC(=O)[C@H](CCC(N)=O)NC(=O)Cn1cnc2ccc(N3CCN(C(=O)CN4CCN(CC(=O)O)CCN(CC(=O)O)CCN(CC(=O)O)CC4)CC3)cc2c1=O)C(C)C)C(N)=O`, in series [2], the IC50 is over 50 nM. Turning to `CCCCC(NC(=O)[C@H](Cc1ccccc1)NC(=O)[C@H](Cc1cnc[nH]1)NC(=O)CCNC(=O)[C@@H](NC(=O)[C@H](C)NC(=O)[C@H](Cc1c[nH]c2ccccc12)NC(=O)[C@H](CCC(N)=O)NC(=O)C(N)Cc1ccc(O)cc1)C(C)C)C(N)=O` (stereo in doubt), in series [3], the outcome was Active. Consider `CSCC[C@H](NC(=O)[C@H](CC(C)C)NC(=O)[C@H](Cc1cnc[nH]1)NC(=O)CNC(=O)[C@@H](NC(=O)[C@H](C)NC(=O)[C@@H](N)Cc1c[nH]c2ccccc12)C(C)C)C(N)=O`, for which the IC50 in series [2] and in series [1] was over 800 nM each time. As for `CSCC[C@H](NC(=O)[C@H](CC(C)C)NC(=O)[C@H](Cc1cnc[nH]1)NC(=O)CNC(=O)[C@@H](NC(=O)[C@H](C)NC(=O)[C@H](Cc1c[nH]c2ccccc12)NC(=O)[C@H](CCC(N)=O)NC(=O)[C@H](CCCNC(=N)N)NC(=O)[C@H](CCCCNC(=O)CNC(=O)CN1CCN(CC(=O)O)CCN(CC(=O)O)CCN(CC(=O)O)CC1)NC(=O)COCCOCCOCC(=O)N[C@H]1CC[C@]2(C)[C@H]3C[C@H](O)[C@]4(C)[C@@H]([C@H](C)CCC(=O)O)CC[C@H]4[C@@H]3CC[C@]2(C)C1)C(C)C)C(N)=O`, the IC50 in series [2] is over 50 nM. Same read-out and setting: then `CSCC[C@H](NC(=O)[C@H](CC(C)C)NC(=O)[C@H](Cc1cnc[nH]1)NC(=O)CNC(=O)[C@@H](NC(=O)[C@H](C)NC(=O)[C@H](Cc1c[nH]c2ccccc12)NC(=O)[C@H](CCC(N)=O)NC(=O)[C@H](CCCNC(=N)N)NC(=O)[C@H](CCCCNC(=O)COCCOCCOCC(=O)N[C@H]1CC[C@]2(C)[C@H]3C[C@H](O)[C@]4(C)[C@@H]([C@H](C)CCC(=O)O)CC[C@H]4[C@@H]3CC[C@]2(C)C1)NC(=O)CNC(=O)CN1CCN(CC(=O)O)CCN(CC(=O)O)CCN(CC(=O)O)CC1)C(C)C)C(N)=O`, with over 50 nM.

In turn, `CSCC[C@H](NC(=O)[C@H](CC(C)C)NC(=O)[C@H](Cc1cnc[nH]1)NC(=O)CNC(=O)[C@@H](NC(=O)[C@H](C)NC(=O)[C@H](Cc1c[nH]c2ccccc12)NC(=O)[C@H](CCC(N)=O)NC(=O)[C@H](CC(N)=O)NC(=O)CNC(=O)[C@H](CC(C)C)NC(=O)[C@H](CCCN=C(N)N)NC(=O)[C@H](CCC(N)=O)NC(=O)[C@@H]1CCC(=O)N1)C(C)C)C(N)=O` [BOMBESIN] yielded a Drug uptake in series [4] of 59%. In series [5], this compound came in with a Drug transport of 35%. `CSCC[C@H](NC(=O)[C@H](CC(C)C)NC(=O)[C@H](Cc1cnc[nH]1)NC(=O)CNC(=O)[C@@H](NC(=O)[C@H](C)NC(=O)[C@H](Cc1c[nH]c2ccccc12)NC(=O)[C@H](CCC(N)=O)NC(=O)CN1CN(c2ccccc2)C2(CCN(C(=O)CN3CCN(CC(=O)O)CCN(CC(=O)O)CCN(CC(=O)O)CC3)CC2)C1=O)C(C)C)C(N)=O` yielded an IC50 in series [2] of over 50 nM. The same measure, in the same setting: then `CSCC[C@H](NC(=O)[C@H](CC(C)C)NC(=O)[C@H](Cc1cnc[nH]1)NC(=O)CNC(=O)[C@@H](NC(=O)[C@H](C)NC(=O)[C@H](Cc1c[nH]c2ccccc12)NC(=O)[C@H](CCC(N)=O)NC(=O)[C@@H]1CSC2CC[C@H](NC(=O)CN3CCN(CC(=O)O)CCN(CC(=O)O)CCN(CC(=O)O)CC3)C(=O)N21)C(C)C)C(N)=O` (stereo partly specified), with over 50 nM. For the compound `CSCC[C@H](NC(=O)[C@H](CC(C)C)NC(=O)[C@H](Cc1cnc[nH]1)NC(=O)CNC(=O)[C@@H](NC(=O)[C@H](C)NC(=O)[C@H](Cc1c[nH]c2ccccc12)NC(=O)[C@H](CCC(N)=O)NC(=O)[C@H](CC(N)=O)NC(=O)CNC(=O)[C@H](Cc1ccc(O)cc1)NC(=O)[C@H](CCCNC(=N)N)NC(=O)[C@H](CCC(N)=O)NC(=O)[C@H](CCC(=O)O)NC(=O)[C@H]1CCCN1)C(C)C)C(N)=O`, the values for the IC50 in series [2] and in series [1] were 2.2 nM and 3.36 nM, respectively. Take `CSCC[C@H](NC(=O)[C@H](CC(C)C)NC(=O)[C@H](Cc1cnc[nH]1)NC(=O)CNC(=O)[C@@H](NC(=O)[C@H](C)NC(=O)[C@H](Cc1c[nH]c2ccccc12)NC(=O)[C@H](CCC(N)=O)NC(=O)[C@@H]1Cc2cccc3c2N1C(=O)[C@@H](NC(=O)CN1CCN(CC(=O)O)CCN(CC(=O)O)CCN(CC(=O)O)CC1)CC3)C(C)C)C(N)=O`: in series [2], the IC50 is over 50 nM. For `CSCC[C@H](NC(=O)[C@H](CC(C)C)NC(=O)[C@H](Cc1cnc[nH]1)NC(=O)CNC(=O)[C@@H](NC(=O)[C@H](C)NC(=O)[C@H](Cc1c[nH]c2ccccc12)NC(=O)[C@H](CCC(N)=O)NC(=O)[C@H]1CC[C@H](CNC(=O)[C@H]2CC[C@H](CNC(=O)CN3CCN(CC(=O)O)CCN(CC(=O)O)CCN(CC(=O)O)CC3)CC2)CC1)C(C)C)C(N)=O`, in series [1], the IC50 was 0.3 nM.

`CSCC[C@H](NC(=O)[C@H](CC(C)C)NC(=O)[C@H](Cc1cnc[nH]1)NC(=O)CNC(=O)[C@@H](NC(=O)[C@H](C)NC(=O)[C@H](Cc1c[nH]c2ccccc12)NC(=O)[C@H](CCC(N)=O)NC(=O)[C@H](CCCCN)NC(=O)[C@H](CO)NC(=O)CNC(=O)[C@H](CSCNC(C)=O)NC(=O)[C@H](CO)NC(=O)CN(C)C)C(C)C)C(N)=O` (Me2Gly-SC(Acm)GSKQWAVGHLM-NH2) came in with an IC50 in series [2] of 2 nM.

In series [2], `CSCC[C@H](NC(=O)[C@H](CC(C)C)NC(=O)[C@H](Cc1cnc[nH]1)NC(=O)CNC(=O)[C@@H](NC(=O)[C@H](C)NC(=O)[C@H](Cc1c[nH]c2ccccc12)NC(=O)[C@H](CCC(N)=O)NC(=O)C[C@@H]1NC(=O)C2C[C@H](NC(=O)CN3CCN(CC(=O)O)CCN(CC(=O)O)CCN(CC(=O)O)CC3)CN2C1=O)C(C)C)C(N)=O` (stereo partly specified) had an IC50 of over 50 nM. In the case of `CSCC[C@H](NC(=O)[C@H](CC(C)C)NC(=O)[C@H](Cc1c[nH]cn1)NC(=O)CNC(=O)[C@@H](NC(=O)[C@H](C)NC(=O)[C@H](Cc1c[nH]c2ccccc12)NC(=O)[C@H](CCC(N)=O)NC(=O)CN1CCCC[C@H](NC(=O)CN2CCN(CC(=O)O)CCN(CC(=O)O)CCN(CC(=O)O)CC2)C1=O)C(C)C)C(N)=O`, the IC50 in series [2] (pc-3) turned out to be 50 nM. As to `CSCC[C@H](NC(=O)[C@H](CC(C)C)NC(=O)[C@H](Cc1cnc[nH]1)NC(=O)CNC(=O)[C@@H](NC(=O)[C@H](C)NC(=O)[C@H](Cc1c[nH]c2ccccc12)NC(=O)[C@H](CCC(N)=O)NC(=O)CN1CCN(C(=O)CN2CCN(CC(=O)O)CCN(CC(=O)O)CCN(CC(=O)O)CC2)CC1)C(C)C)C(N)=O`, in series [2], the IC50 is over 50 nM.

Source of the values: ChEMBL document CHEMBL3879899, “Gastrin releasing peptide compounds” (2011).
